Results reported in patent US20210187128A1, “COLOR CHANGING SILK PATCH FOR VISIBLE ROS DETECTION” (University of Central Florida Research Foundation, Inc., priority 2019, published 2021).

Legend:
[1] = cited from earlier work
[2] = tested on: human skin keratinocyte (HaCat) cells; experiment: In vitro cellular biocompatibility of Amplex Red by MTT assay; format: cell-based; details: for cellular viability: highest concentration of 388 μM, beyond 80% considered biocompatible
Protocol: Amplex Red compound was tested for in vitro cellular toxicity analysis against the human skin keratinocyte (HaCat) cells (purchased from ATCC, USA) using cell culture-based MTT assay. Herein, 10,000 cells were grown overnight into a 96 well plate using DMEM:F12 cell culture media. Different concentrations of Amplex red compound were prepared using incomplete cell culture media and incubated with HaCat cells for a time period of 24 hours and 48 hours respectively. Post incubation time period, MTT analysis was performed using the standard protocol described in Singh 2018, herein incorporated by reference into this disclosure in its entirety. (S. (Singh, A. Ly, S. Das, T. S. Sakthivel, S. Barkam and S. Seal, Artif. Cells, Nanomed., Biotechnol., 2018, 1-8). MTT assay compound (Thiazyolyl blue tetrazolium bromide) was then added for measuring the cellular viability, and absorbance was recorded for treated samples in comparison to control samples (HaCat cells only) and data analysis was performed.

concentration found to be highly biocompatible ([2]; 24 hours): up to 388 μM
concentration found to be highly biocompatible ([2]; 48 hours): up to 388 μM
Compound: CC(=O)N1c2ccc(O)cc2Oc2cc(O)ccc21 [Amplex Red]
detection limit for H2O2 in solutions ([1]; in solutions): 10 picomolar
amount of H2O2 detected (limit of detection) ([1]; with HRP, 100 μL volume): 10 picomoles
toxicity to the cells [2]: completely non-toxic
cellular viability ([2]; 24 hours): > 80%
cellular viability ([2]; 48 hours): > 80%
